In PubChem BioAssay (NCI):
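GI50 is the concentration that inhibits growth by half. The concentration for full growth arrest is given as TGI.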

Columns and labels:
Assay in all cases: inhibition of tumour cell growth, NCI panel, 384-well format
786-0 renal = test system: 786-0 renal
A498 renal = test system: A498 renal
A549 NSCLC = test system: A549 NSCLC
ACHN renal = test system: ACHN renal
BT-549 breast = test system: BT-549 breast
CAKI-1 renal = test system: CAKI-1 renal
CCRF-CEM leukemia = test system: CCRF-CEM leukemia
COLO 205 colon = test system: COLO 205 colon
DU-145 prostate = test system: DU-145 prostate
EKVX NSCLC = test system: EKVX NSCLC
HCC-2998 colon = test system: HCC-2998 colon
HCT-116 colon = test system: HCT-116 colon
HCT-15 colon = test system: HCT-15 colon
HL-60(TB) leukemia = test system: HL-60(TB) leukemia
HOP-62 NSCLC = test system: HOP-62 NSCLC
HOP-92 NSCLC = test system: HOP-92 NSCLC
HS 578T breast = test system: HS 578T breast
HT29 colon = test system: HT29 colon
IGROV1 ovarian = test system: IGROV1 ovarian
K-562 leukemia = test system: K-562 leukemia
KM12 colon = test system: KM12 colon
LOX IMVI melanoma = test system: LOX IMVI melanoma
M14 melanoma = test system: M14 melanoma
MALME-3M melanoma = test system: MALME-3M melanoma
MCF7 breast = test system: MCF7 breast
MDA-MB-231 breast = test system: MDA-MB-231 breast
MDA-MB-435 melanoma = test system: MDA-MB-435 melanoma
MDA-MB-468 breast = test system: MDA-MB-468 breast
MOLT-4 leukemia = test system: MOLT-4 leukemia
NCI-H226 lung = test system: NCI-H226 lung
NCI-H23 lung = test system: NCI-H23 lung
NCI-H322M lung = test system: NCI-H322M lung
NCI-H460 NSCLC = test system: NCI-H460 NSCLC
NCI-H522 lung = test system: NCI-H522 lung
NCI/ADR-RES ovarian = test system: NCI/ADR-RES ovarian
OVCAR-3 ovarian = test system: OVCAR-3 ovarian
OVCAR-4 ovarian = test system: OVCAR-4 ovarian
OVCAR-5 ovarian = test system: OVCAR-5 ovarian
OVCAR-8 ovarian = test system: OVCAR-8 ovarian
PC-3 prostate = test system: PC-3 prostate
RPMI-8226 leukemia = test system: RPMI-8226 leukemia
RXF 393 renal = test system: RXF 393 renal
SF-268 CNS = test system: SF-268 CNS
SF-295 CNS = test system: SF-295 CNS
SF-539 CNS = test system: SF-539 CNS
SK-MEL-2 melanoma = test system: SK-MEL-2 melanoma
SK-MEL-28 melanoma = test system: SK-MEL-28 melanoma
SK-MEL-5 melanoma = test system: SK-MEL-5 melanoma
SK-OV-3 ovarian = test system: SK-OV-3 ovarian
SN12C renal = test system: SN12C renal
SNB-19 CNS = test system: SNB-19 CNS
SNB-75 CNS = test system: SNB-75 CNS
SW-620 colon = test system: SW-620 colon
T-47D breast = test system: T-47D breast
TK-10 renal = test system: TK-10 renal
U251 glioblastoma = test system: U251 glioblastoma
UACC-257 melanoma = test system: UACC-257 melanoma
UACC-62 melanoma = test system: UACC-62 melanoma
UO-31 renal = test system: UO-31 renal

## C=CC(=O)N1CCC(Oc2cc3c(Nc4ccc(Cl)c(Cl)c4F)ncnc3cc2OC)CC1
786-0 renal
  GI50: 1310 nM
  TGI: 4740 nM
A498 renal
  GI50: 137 nM
  TGI: 1950 nM
A549 NSCLC
  GI50: 1240 nM
  TGI: 12000 nM
ACHN renal
  GI50: < 10 nM
  TGI: 11200 nM
BT-549 breast
  GI50: 1110 nM
  TGI: 3990 nM
CAKI-1 renal
  GI50: 198 nM
  TGI: 1700 nM
CCRF-CEM leukemia
  GI50: 1260 nM
  TGI: 2740 nM
COLO 205 colon
  GI50: 4340 nM
  TGI: 18400 nM
DU-145 prostate
  GI50: 879 nM
  TGI: 14600 nM
EKVX NSCLC
  GI50: < 10 nM
  TGI: 2140 nM
HCC-2998 colon
  GI50: 1620 nM
  TGI: 7470 nM
HCT-116 colon
  GI50: 3730 nM
  TGI: 15200 nM
HCT-15 colon
  GI50: 2380 nM
  TGI: 12700 nM
HL-60(TB) leukemia
  GI50: 1940 nM
  TGI: 3490 nM
HOP-62 NSCLC
  GI50: 2270 nM
  TGI: 8530 nM
HOP-92 NSCLC
  GI50: 1390 nM
  TGI: 4020 nM
HS 578T breast
  GI50: 1040 nM
  TGI: 2460 nM
HT29 colon
  GI50: 2420 nM
  TGI: 11900 nM
IGROV1 ovarian
  GI50: < 10 nM
  TGI: 817 nM
K-562 leukemia
  GI50: 1270 nM
  TGI: 2880 nM
KM12 colon
  GI50: 3070 nM
  TGI: 12700 nM
LOX IMVI melanoma
  GI50: 1620 nM
  TGI: 3470 nM
M14 melanoma
  GI50: 3010 nM
  TGI: 15400 nM
MALME-3M melanoma
  GI50: 2520 nM
  TGI: 11200 nM
MCF7 breast
  GI50: 690 nM
  TGI: 14100 nM
MDA-MB-231 breast
  GI50: 2100 nM
  TGI: 14000 nM
MDA-MB-435 melanoma
  GI50: 2640 nM
  TGI: 10900 nM
MDA-MB-468 breast
  GI50: < 10 nM
  TGI: < 10 nM
MOLT-4 leukemia
  GI50: 430 nM
  TGI: 1880 nM
NCI-H226 lung
  GI50: 813 nM
  TGI: 13200 nM
NCI-H23 lung
  GI50: 1780 nM
  TGI: 6130 nM
NCI-H322M lung
  GI50: < 10 nM
  TGI: 4150 nM
NCI-H460 NSCLC
  GI50: 2870 nM
  TGI: 13700 nM
NCI-H522 lung
  GI50: < 10 nM
  TGI: 16.2 nM
NCI/ADR-RES ovarian
  GI50: 1100 nM
  TGI: 3210 nM
OVCAR-3 ovarian
  GI50: 244 nM
  TGI: 3210 nM
OVCAR-4 ovarian
  GI50: 363 nM
  TGI: 5420 nM
OVCAR-5 ovarian
  GI50: 1230 nM
  TGI: 11800 nM
OVCAR-8 ovarian
  GI50: 1950 nM
  TGI: 12200 nM
PC-3 prostate
  GI50: 1960 nM
  TGI: 10400 nM
RPMI-8226 leukemia
  GI50: 1250 nM
  TGI: 3260 nM
RXF 393 renal
  GI50: 230 nM
  TGI: 1310 nM
SF-268 CNS
  GI50: 1190 nM
  TGI: 5580 nM
SF-295 CNS
  GI50: 4150 nM
  TGI: 14900 nM
SF-539 CNS
  GI50: 1360 nM
  TGI: 3560 nM
SK-MEL-2 melanoma
  GI50: 1750 nM
  TGI: 4660 nM
SK-MEL-28 melanoma
  GI50: 14000 nM
  TGI: 27100 nM
SK-MEL-5 melanoma
  GI50: 2980 nM
  TGI: 13300 nM
SK-OV-3 ovarian
  GI50: < 10 nM
  TGI: 1520 nM
SN12C renal
  GI50: 353 nM
  TGI: 6440 nM
SNB-19 CNS
  GI50: 2920 nM
  TGI: 14400 nM
SNB-75 CNS
  GI50: 291 nM
  TGI: 2130 nM
SW-620 colon
  GI50: 4420 nM
  TGI: 16600 nM
T-47D breast
  GI50: 17.3 nM
  TGI: 7890 nM
TK-10 renal
  GI50: < 10 nM
  TGI: 738 nM
U251 glioblastoma
  GI50: 3520 nM
  TGI: 15700 nM
UACC-257 melanoma
  GI50: 3330 nM
  TGI: 13600 nM
UACC-62 melanoma
  GI50: 2440 nM
  TGI: 11600 nM
UO-31 renal
  GI50: 137 nM
  TGI: 2080 nM
